According to patent publication US8071763B2, “Methods for treatment of nocturia” (Daiichi Sankyo Company, Limited, priority 2002, dated 2011):
Marks after values point to notes of the source that are not given here.

Test system: patients with nocturia
Assay: Non-randomized trial treatment with loxoprofen in patients with nocturia; voids/night outcome assessed as excellent, improved, unchanged or worsened
Assay type: in vivo, human
Method: One hundred forty one patients (135 men) aged 49 to 89 (mean 70.5) years with LUTS and =2 voids per night were enrolled in the study. Their main diseases were BPH (n=93), prostate cancer (n=24) and neurogenic bladder (NB) (n=13); 11 had other diseases. […] Patients who had asthma, gastrointestinal disorders, renal dysfunction and allergies to loxoprofen were excluded. Patients took a single 60 mg loxoprofen tablet prior to sleeping at night for 4 to 14 days initially concurrently with their treatments for their main diseases. Numbers of voids/night as reported by each patient were evaluated and treatment outcome was assessed as either excellent (nocturia disappeared or decreased by =2 voids/night), improved (nocturia decreased by 1 void/night), unchanged or worsened (nocturia increased).

[1] = 60 mg prior to sleeping, 108 patients who did not respond to anticholinergic drugs
[2] = 60 mg prior to sleeping, Antidiuretic hormone non-responder, 3 patients
[3] = 60 mg prior to sleeping, Antidiuretic hormone responder, 6 patients
[4] = 60 mg prior to sleeping, BPH, 93 patients
[5] = 60 mg prior to sleeping, BPH, 93 patients, listed as Loxoprofen
[6] = 60 mg prior to sleeping, Female, 6
[7] = 60 mg prior to sleeping, Insomnia, 20 patients
[8] = 60 mg prior to sleeping, Male, 135
[9] = 60 mg prior to sleeping, Neurogenic bladder, 13 patients
[10] = 60 mg prior to sleeping, Neurogenic bladder, 13 patients, listed as Loxoprofen
[11] = 60 mg prior to sleeping, Nocturnal polyuria, 7 patients
[12] = 60 mg prior to sleeping, Post-TURP, 18 patients
[13] = 60 mg prior to sleeping, Post-thermotherapy, 19 patients
[14] = 60 mg prior to sleeping, Prostate cancer, 24 patients
[15] = 60 mg prior to sleeping, Prostate cancer, 24 patients, listed as Loxoprofen
[16] = 60 mg prior to sleeping, Prostate cancer, hormone therapy, 15 patients
[17] = 60 mg prior to sleeping, Prostate cancer, post-prostatectomy (radical), 5 patients
[18] = 60 mg prior to sleeping, Prostate cancer, post-radiation, 4 patients
[19] = 60 mg prior to sleeping, Prostatodynia, 5 patients
[20] = 60 mg prior to sleeping, Urinary frequency with UUI, 10 patients
[21] = 60 mg prior to sleeping, Urinary frequency without UUI, 9 patients
[22] = 60 mg prior to sleeping, aged 49 to 59 years
[23] = 60 mg prior to sleeping, aged 60 to 69 years
[24] = 60 mg prior to sleeping, aged 70 to 79 years
[25] = 60 mg prior to sleeping, aged 80 to 86 years
[26] = 60 mg prior to sleeping, frequency at baseline 2 and 2-3, 56 patients
[27] = 60 mg prior to sleeping, frequency at baseline 3-4, 59 patients
[28] = 60 mg prior to sleeping, frequency at baseline 4-5, 15 patients
[29] = 60 mg prior to sleeping, frequency at baseline >5, 11 patients
[30] = 60 mg prior to sleeping, non-responders to Anticholinergics, 32 patients
[31] = 60 mg prior to sleeping, non-responders to Hypnotics, 42 patients
[32] = 60 mg prior to sleeping, non-responders to TCA (tricyclic antidepressants), 76 patients

CC(C(=O)O)c1ccc(CC2CCCC2=O)cc1 (centres unmarked) [loxoprofen, loxoprofen sodium]
Onset of changes in patients' symptoms (60 mg prior to sleeping): starting from the first night of therapy | Excellent responder rate (60 mg prior to sleeping, 85 patients with more frequent nocturia than 2 to 3 episodes at baseline): 46% | Excellent rate [1]: 44% | Improved rate [1]: 38% | Nocturia improved or disappeared, % of patients overall (60 mg prior to sleeping, 141 patients): 72% | Improved, % of patients [2]: (33%) | Improved, no. of patients [2]: 1 | Unchanged, % of patients [2]: 67% | Unchanged, no. of patients [2]: 2 | Excellent, % of patients [3]: (17%) | Excellent, no. of patients [3]: 1 | Improved, % of patients [3]: (67%) | Improved, no. of patients [3]: 4 | Unchanged, % of patients [3]: 17% | Unchanged, no. of patients [3]: 1 | Excellent, % of patients [4]: (39%) | Excellent, no. of patients [4]: 36^ | Improved, % of patients [4]: (34%) | Improved, no. of patients [4]: 32^ | Unchanged, % of patients [4]: (23%) | Unchanged, no. of patients [4]: 21^ | Worsened, % of patients [4]: (4%) | Worsened, no. of patients [4]: 4 | Excellent, % of patients [5]: 39% | Improved, % of patients [5]: 34% | Excellent, % of patients [6]: (33%) | Excellent, no. of patients [6]: 2 | Improved, % of patients [6]: (33%) | Improved, no. of patients [6]: 2 | Unchanged, % of patients [6]: (33%) | Unchanged, no. of patients [6]: 2 | Excellent, % of patients [7]: (35%) | Excellent, no. of patients [7]: 7^ | Improved, % of patients [7]: (40%) | Improved, no. of patients [7]: 8^ | Unchanged, % of patients [7]: (20%) | Unchanged, no. of patients [7]: 4^ | Worsened, % of patients [7]: (5%) | Worsened, no. of patients [7]: 1 | Excellent, % of patients (60 mg prior to sleeping, Insomnia, 20 patients, listed as Loxoprofen): 35% | Excellent, no. of patients (60 mg prior to sleeping, Interstitial cystitis, 2 patients): 2^¶ | Excellent, % of patients [8]: (36%) | Excellent, no. of patients [8]: 49 | Improved, % of patients [8]: (36%) | Improved, no. of patients [8]: 48 | Unchanged, % of patients [8]: (24%) | Unchanged, no. of patients [8]: 32 | Worsened, % of patients [8]: (4%) | Worsened, no. of patients [8]: 6 | Excellent, % of patients [9]: (69%) | Excellent, no. of patients [9]: 9^‡ | Improved, % of patients [9]: (8%) | Improved, no. of patients [9]: 1^¶ | Unchanged, % of patients [9]: (15%) | Unchanged, no. of patients [9]: 2^¶ | Worsened, % of patients [9]: (8%) | Worsened, no. of patients [9]: 1 | Excellent, % of patients [10]: 69% | Improved, % of patients [10]: 8% | Excellent, % of patients [11]: (14%) | Excellent, no. of patients [11]: 1^ | Improved, % of patients [11]: (71%) | Improved, no. of patients [11]: 5^ | Unchanged, % of patients [11]: (14%) | Unchanged, no. of patients [11]: 1^ | Excellent, % of patients (60 mg prior to sleeping, Nocturnal polyuria, 7 patients, listed as Loxoprofen): 14% | Excellent, no. of patients [12]: 8 | Improved, % of patients [12]: (27%) | Improved, no. of patients [12]: 5 | Unchanged, % of patients [12]: 22% | Unchanged, no. of patients [12]: 4 | Worsened, % of patients [12]: 6% | Worsened, no. of patients [12]: 1 | Excellent, no. of patients [13]: 8 | Improved, % of patients [13]: (26%) | Improved, no. of patients [13]: 5 | Unchanged, % of patients [13]: 32% | Unchanged, no. of patients [13]: 6 | Excellent, % of patients [14]: (29%) | Excellent, no. of patients [14]: 7^ | Improved, % of patients [14]: (33%) | Improved, no. of patients [14]: 8^ | Unchanged, % of patients [14]: (33%) | Unchanged, no. of patients [14]: 8^ | Worsened, % of patients [14]: (4%) | Worsened, no. of patients [14]: 1 | Excellent, % of patients [15]: 29% | Improved, % of patients [15]: 33% | Excellent, no. of patients [16]: 5^ | Improved, no. of patients [16]: 3^ | Unchanged, no. of patients [16]: 6^ | Worsened, no. of patients [16]: 1 | Excellent, no. of patients [17]: 1^ | Improved, no. of patients [17]: 2^ | Unchanged, no. of patients [17]: 2^ | Excellent, no. of patients [18]: 1^ | Improved, no. of patients [18]: 3^ | Excellent, % of patients [19]: (20%) | Excellent, no. of patients [19]: 1^ | Improved, % of patients [19]: (40%) | Improved, no. of patients [19]: 2^ | Unchanged, % of patients [19]: (20%) | Unchanged, no. of patients [19]: 1^ | Worsened, % of patients [19]: (20%) | Worsened, no. of patients [19]: 1 | Worsened, no. of patients (60 mg prior to sleeping, Total 141): 6 | Excellent, % of patients [20]: (20%) | Excellent, no. of patients [20]: 2^ | Improved, % of patients [20]: (50%) | Improved, no. of patients [20]: 5^† | Unchanged, % of patients [20]: (30%) | Unchanged, no. of patients [20]: 3^¶ | Excellent, % of patients (60 mg prior to sleeping, Urinary frequency with UUI, 10 patients, listed as Loxoprofen): 20% | Excellent, % of patients [21]: (44%) | Excellent, no. of patients [21]: 4^¶ | Improved, % of patients [21]: (22%) | Improved, no. of patients [21]: 2^ | Unchanged, % of patients [21]: (22%) | Unchanged, no. of patients [21]: 2^¶ | Worsened, % of patients [21]: (11%) | Worsened, no. of patients [21]: 1 | Excellent, % of patients (60 mg prior to sleeping, Urinary frequency without UUI, 9 patients, listed as Loxoprofen): 44% | Excellent responses, % of patients [22]: 50% | Excellent responses, patients/group size [22]: 4/8 | Excellent responses, % of patients [23]: 40% | Excellent responses, patients/group size [23]: 17/43 | Excellent responses, % of patients [24]: 35% | Excellent responses, patients/group size [24]: 23/65 | Excellent responses, % of patients [25]: 28% | Excellent responses, patients/group size [25]: 7/25 | Excellent, % of patients [26]: (21%) | Excellent, no. of patients [26]: 12*^ | Improved, % of patients [26]: (41%) | Improved, no. of patients [26]: 23^† | Unchanged, % of patients [26]: (34%) | Unchanged, no. of patients [26]: 19^† | Worsened, % of patients [26]: (4%) | Worsened, no. of patients [26]: 2 | Excellent, % of patients (60 mg prior to sleeping, frequency at baseline 2 and 2-3, 56 patients, listed as Loxoprofen): 21% | Excellent, % of patients [27]: (47%) | Excellent, no. of patients [27]: 28^† | Improved, % of patients [27]: (31%) | Improved, no. of patients [27]: 18^† | Unchanged, % of patients [27]: (17%) | Unchanged, no. of patients [27]: 10^† | Worsened, % of patients [27]: (5%) | Worsened, no. of patients [27]: 3 | Excellent, % of patients [28]: (40%) | Excellent, no. of patients [28]: 6^ | Improved, % of patients [28]: (40%) | Improved, no. of patients [28]: 6^ | Unchanged, % of patients [28]: (20%) | Unchanged, no. of patients [28]: 3^ | Excellent, % of patients [29]: (45%) | Excellent, no. of patients [29]: 5^† | Improved, % of patients [29]: (27%) | Improved, no. of patients [29]: 3^ | Unchanged, % of patients [29]: (18%) | Unchanged, no. of patients [29]: 2^ | Worsened, % of patients [29]: (5%) | Worsened, no. of patients [29]: 1 | Excellent, % of patients [30]: (44%) | Excellent, no. of patients [30]: 14 | Improved, % of patients [30]: (38%) | Improved, no. of patients [30]: 12 | Unchanged, % of patients [30]: 19% | Unchanged, no. of patients [30]: 6 | Worsened, % of patients [30]: 3% | Worsened, no. of patients [30]: 1 | Excellent, no. of patients [31]: 13 | Improved, no. of patients [31]: 16 | Unchanged, % of patients [31]: 26% | Unchanged, no. of patients [31]: 11 | Worsened, % of patients [31]: 5% | Worsened, no. of patients [31]: 2 | Excellent, % of patients [32]: (39%) | Excellent, no. of patients [32]: 30 | Improved, % of patients [32]: (37%) | Improved, no. of patients [32]: 28 | Unchanged, % of patients [32]: 22% | Unchanged, no. of patients [32]: 17 | Worsened, % of patients [32]: 5% | Worsened, no. of patients [32]: 4 | Excellent effects, patients (60 mg prior to sleeping, patients who previously responded or were refractory to antidiuretic hormone): one of nine patients | Side effects such as dry mouth, constipation and habituation (human, in vivo): does not produce side effects | Quality of life (patients whose nocturia improved): noticeable improvements in their quality of life | Effect on voiding power (patients with BOO): does not decrease voiding power | Time to first voiding (some patients of the unchanged group): delayed by several hours
